Test results from patent publication US9096560B2, “5-heterocyclylalkyl-3-hydroxy-2-phenylcyclopent-2-enones as herbicides” (Syngenta Limited, priority 2008, dated 2015).

How the values were obtained:
Format in all cases: in vivo
[1] = test system: Alopecurus myosuroides (ALOMY); assay: Example B post-emergence herbicidal test, ALOMY; conditions: Alopecurus myosuroides, 312 h, rate 250 g/ha, evaluated after 13 days, scale 0-100, read-out: Post-emergence activity ALOMY (100=total damage to plant; 0=no damage to plant)
Method in brief: (§1)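 Plants grown 8 days in glasshouse (24/16 °C day/night, 14 h light, 65% humidity), then sprayed with aqueous solution from acetone/water (50:50) formulation with 0.5% Tween 20. Damage scored 13 days later on a 0–100 scale (100 = total damage).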

Avena fatua (AVEFA) [2] = assay: Example B post-emergence herbicidal test, AVEFA; conditions: Avena fatua, 312 h, rate 250 g/ha, evaluated after 13 days, scale 0-100, read-out: Post-emergence activity AVEFA (100=total damage to plant; 0=no damage to plant)
Method in brief: as §1

Lolium perenne (LOLPE) [3] = assay: Example B pre-emergence herbicidal test, LOLPE; conditions: Lolium perenne, 312 h, rate 250 g/ha, evaluated after 13 days, 100=total damage to plant, 0=no damage to plant
Method in brief: (§2)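 Pre-emergence spray one day after sowing; vehicle acetone/water (50:50), 0.5% Tween 20. Percent damage (0 = no effect, 100 = plant killed) recorded 13 days later.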

Lolium perenne (LOLPE) [4] = assay: Example B post-emergence herbicidal test, LOLPE; conditions: Lolium perenne, 312 h, rate 250 g/ha, evaluated after 13 days, scale 0-100, read-out: Post-emergence activity LOLPE (100=total damage to plant; 0=no damage to plant)
Method in brief: as §1

[5] = test system: Echinochloa crus-galli (ECHCG); assay: Example B post-emergence herbicidal test, ECHCG; conditions: Echinochloa crus-galli, 312 h, rate 250 g/ha, evaluated after 13 days, scale 0-100, read-out: Post-emergence activity ECHCG (100=total damage to plant; 0=no damage to plant)
Method in brief: as §1

Avena fatua (AVEFA) [6] = assay: Example B pre-emergence herbicidal test, AVEFA; conditions: Avena fatua, 312 h, rate 250 g/ha, evaluated after 13 days, 100=total damage to plant, 0=no damage to plant
Method in brief: as §2

[7] = test system: Alopecurus myosuroides (ALOMY); assay: Example B pre-emergence herbicidal test, ALOMY; conditions: Alopecurus myosuroides, 312 h, rate 250 g/ha, evaluated after 13 days, 100=total damage to plant, 0=no damage to plant
Method in brief: as §2

[8] = test system: Echinochloa crus-galli (ECHCG); assay: Example B pre-emergence herbicidal test, ECHCG; conditions: Echinochloa crus-galli, 312 h, rate 250 g/ha, evaluated after 13 days, 100=total damage to plant, 0=no damage to plant
Method in brief: as §2

Structure (SMILES) | pest or weed control at 250 g/ha [1] [%] | pest or weed control at 250 g/ha (Avena fatua (AVEFA) [2]) [%] | pest or weed control at 250 g/ha (Lolium perenne (LOLPE) [3]) [%] | pest or weed control at 250 g/ha (Lolium perenne (LOLPE) [4]) [%] | pest or weed control at 250 g/ha [5] [%] | pest or weed control at 250 g/ha (Avena fatua (AVEFA) [6]) [%] | pest or weed control at 250 g/ha [7] [%] | pest or weed control at 250 g/ha [8] [%]
CCC(=O)N1CCC(CC2CC(=O)C(c3c(C)cc(C)cc3C)C2=O)CC1 (stereo not drawn) [Compound T83] | 80 | 100 | 90 | 90 | 70 | 70 | 60 | 90
CCCCC(=O)N1CCC(CC2CC(=O)C(c3c(C)cc(C)cc3C)C2=O)CC1 (stereo not drawn) [Compound T85] | 90 | 90 | 60 | 90 | 80 | 20 | 60 | 30
Cc1cc(C)c(C2C(=O)CC(CC3CCN(C(=O)OCC(Cl)(Cl)Cl)CC3)C2=O)c(C)c1 (stereo not drawn) [Compound T86] | 40 | 80 | 100 | 70 | 80 | 30 | 60 | 50
Cc1cc(C)c(C2C(=O)CC(CC3CCN(C(=O)C(C)Cl)CC3)C2=O)c(C)c1 (stereo not drawn) [Compound T87] | 70 | 90 | 100 | 90 | 70 | 90 | 90 | 60
Cc1cc(C)c(C2C(=O)CC(CC3CCN(C(=O)C4CCCCC4)CC3)C2=O)c(C)c1 (stereo not drawn) [Compound T89] | 30 | 20 | 70 | 40 | 40 | 10 | 50 | 60
Cc1cc(C)c(C2C(=O)CC(CC3CCN(C(=O)c4ccco4)CC3)C2=O)c(C)c1 (stereo not drawn) [Compound T90] | 70 | 100 | 60 | 80 | 80 | 60 | 40 | 50
Cc1cc(C)c(C2C(=O)CC(CC3CCN(S(=O)(=O)c4ccccc4)CC3)C2=O)c(C)c1 (stereo not drawn) [Compound T91] | 40 | 90 | 70 | 50 | 50 | 40 | 20 | 60
Cc1cc(C)c(C2C(=O)CC(CC3CCN(S(=O)(=O)c4ccc(Cl)cc4)CC3)C2=O)c(C)c1 (stereo not drawn) [Compound T92] | 30 | 60 | 30 | 20 | 40 | 10 | 30 | 40
Cc1cc(C)c(C2C(=O)CC(CC3CCN(S(=O)(=O)C(C)C)CC3)C2=O)c(C)c1 (stereo not drawn) [Compound T93] | 60 | 70 | 90 | 70 | 60 | 60 | 60 | 90
Cc1cc(C)c(C2C(=O)CC(CC3CCN(S(C)(=O)=O)CC3)C2=O)c(C)c1 (stereo not drawn) [Compound T94] | 100 | 100 | 90 | 90 | 90 | 90 | 90 | 80
CCS(=O)(=O)N1CCC(CC2CC(=O)C(c3c(C)cc(C)cc3C)C2=O)CC1 (stereo not drawn) [Compound T95] | 90 | 100 | 100 | 100 | 70 | 90 | 90 | 60
CCCCS(=O)(=O)N1CCC(CC2CC(=O)C(c3c(C)cc(C)cc3C)C2=O)CC1 (stereo not drawn) [Compound T96] | 60 | 40 | 60 | 60 | 40 | 10 | 20 | 20
COc1ccc(C(=O)N2CCC(CC3CC(=O)C(c4c(C)cc(C)cc4C)C3=O)CC2)cc1 (stereo not drawn) [Compound T97] | 70 | 70 | 70 | 60 | 80 | 30 | 30 | 60
Cc1cc(C)c(C2C(=O)CC(CC3CCN(C(=O)c4ccc(C(F)(F)F)cc4)CC3)C2=O)c(C)c1 (stereo not drawn) [Compound T99] | 70 | 90 | 60 | 50 | 90 | 30 | 20 | 60
Cc1cc(C)c(C2C(=O)CC(CC3CCN(C(=O)N4CCOCC4)CC3)C2=O)c(C)c1 (stereo not drawn) [Compound T100] | 90 | 90 | 90 | 80 | 60 | 60 | 60 | 70
C=CCOC(=O)N1CCC(CC2CC(=O)C(c3c(C)cc(C)cc3C)C2=O)CC1 (stereo not drawn) [Compound T101] | 40 | 40 | 50 | 40 | 20 | 30 | 20 | 50
C=COC(=O)N1CCC(CC2CC(=O)C(c3c(C)cc(C)cc3C)C2=O)CC1 (stereo not drawn) [Compound T102] | 90 | 90 | 70 | 80 | 40 | 30 | 50 | 50
Cc1cc(C)c(C2C(=O)CC(CC3CCN(C(=O)OCCCl)CC3)C2=O)c(C)c1 (stereo not drawn) [Compound T103] | 50 | 60 | 30 | 50 | 30 | 20 | 30 | 10
CC(C)=CC(=O)N1CCC(CC2CC(=O)C(c3c(C)cc(C)cc3C)C2=O)CC1 (stereo not drawn) [Compound T104] | 70 | 90 | 70 | 80 | 70 | 60 | 60 | 90
Cc1cc(C)c(C2C(=O)CC(CC3CCN(C(=O)C(Cl)(Cl)Cl)CC3)C2=O)c(C)c1 (stereo not drawn) [Compound T105] | 30 | 40 | 60 | 50 | 30 | 30 | 20 | 40
Cc1cc(C)c(C2C(=O)CC(CC3CCN(C(=O)c4cc(F)c(Cl)nc4Cl)CC3)C2=O)c(C)c1 (stereo not drawn) [Compound T106] | 40 | 10 | 20 | 30 | 30 | 30 | 20 | 20
